According to patent US20050176655A1, “Novel macrolide derivatives havaing effect of potentiating antifungal activity” (priority 2002, published 2005):

Experiments:
[1] = system: Candida albicans ATCC 64548; assay: Paper disk method, enhancing action for activities of azole antifungal agents; assay type: cell-based; settings: 24 hours; for Inhibition activity (inhibition ring mm) C. albicans ATCC 64548 GYM / Transparency of the inhibition ring C. albicans ATCC 64548 GYM: miconazole 0.03 μg/ml
Procedure: (§1) Test organisms used were Candida albicans ATCC 64548, fluconazole resistant Candida albicans ATCC 64550 and Aspergillus niger ATCC 6275. Candida spp. were cultured in Waksman broth (glucose 2.0%, peptone 0.5%, dry yeast 0.3%, meat extract 0.5%, NaCl 0.5% and CaCO3 0.3%, pH 7.0) at 27° C. for 40 hours, then 0.1% thereof was inoculated on GY agar medium (glucose 1.0%, yeast extract 0.5% and agar 0.8%, pH 6.0). Spore suspension 0.2% of Aspergillus niger ATCC 6275 was inoculated on GY agar medium.
(§2) Azole antifungal agents used were miconazole (Sigma Inc., the U.S.) and fluconazole (ICN Pharmaceuticals, Inc., the U.S.), and were added at concentrations without affecting growth on each test organisms follows.
Candida albicans ATCC 64548: miconazole 0.03 μg/ml or fluconazole 0.5 μg/ml.
(§3) In the above medium, a medium added with miconazole to GY medium (control) is designated as GYM, and a medium added with fluconazole is designated as GYF. Activities were assessed by means of paper disk method (thickness: 8 mm, ADVANTEC MFS INC., Japan). Diameter of inhibition ring is expressed with mm unit after culturing Candida spp. for 24 hours and Aspergillus niger ATCC 6275 for 48 hours. Transparency of the inhibition ring is assessed with 5 degrees of A, B, C, D and E (transparence<A<B<C<D<E<opaque).

[2] = system: Aspergillus niger ATCC 6275; assay: as above; assay type: cell-based; settings: 48 hours; for Inhibition activity (inhibition ring mm) A. niger ATCC 6275 GYF / Transparency of the inhibition ring A. niger ATCC 6275 GYF: fluconazole 10 μg/ml; for Inhibition activity (inhibition ring mm) A. niger ATCC 6275 GYM / Transparency of the inhibition ring A. niger ATCC 6275 GYM: miconazole 0.1 μg/ml
Procedure: as §1, §2
Aspergillus niger ATCC 6275: miconazole 0.1 μg/ml or fluconazole 10 μg/ml.
as §3

[3] = 50 μg/8 mm disk, GYF, fluconazole 0.5 μg/ml
[4] = 50 μg/8 mm disk, GY medium (control, no azole)

SMILES	Inhibition activity (inhibition ring mm) C. albicans ATCC 64548 GYM ([1]; 10 μg/8 mm disk) [mm]	Transparency of the inhibition ring C. albicans ATCC 64548 GYM ([1]; 10 μg/8 mm disk)	Inhibition activity (inhibition ring mm) C. albicans ATCC 64548 GYM ([1]; 50 μg/8 mm disk) [mm]	Transparency of the inhibition ring C. albicans ATCC 64548 GYM ([1]; 50 μg/8 mm disk)	Inhibition activity (inhibition ring mm) A. niger ATCC 6275 GYF ([2]; 10 μg/8 mm disk) [mm]	Transparency of the inhibition ring A. niger ATCC 6275 GYF ([2]; 10 μg/8 mm disk)	Inhibition activity (inhibition ring mm) A. niger ATCC 6275 GYF ([2]; 50 μg/8 mm disk) [mm]	Transparency of the inhibition ring A. niger ATCC 6275 GYF ([2]; 50 μg/8 mm disk)	Inhibition activity (inhibition ring mm) C. albicans ATCC 64548 GYF [1, 3] [mm]	Transparency of the inhibition ring C. albicans ATCC 64548 GYF [1, 3]	Inhibition activity (inhibition ring mm) A. niger ATCC 6275 GYM ([2]; 100 μg/8 mm disk) [mm]	Transparency of the inhibition ring A. niger ATCC 6275 GYM ([2]; 100 μg/8 mm disk)	Inhibition activity (inhibition ring mm) C. albicans ATCC 64548 GYM ([1]; 100 μg/8 mm disk) [mm]	Transparency of the inhibition ring C. albicans ATCC 64548 GYM ([1]; 100 μg/8 mm disk)	Inhibition activity (inhibition ring mm) A. niger ATCC 6275 GY [2, 4] [mm]	Transparency of the inhibition ring A. niger ATCC 6275 GY [2, 4]	Inhibition activity (inhibition ring mm) A. niger ATCC 6275 GYM ([2]; 50 μg/8 mm disk) [mm]	Transparency of the inhibition ring A. niger ATCC 6275 GYM ([2]; 50 μg/8 mm disk)
CCC1OC(=O)C(C)C(OC2CC(C)(OC)C(O)C(C)O2)C(C)C(OC2OC(C)CC(N(C)C)C2O)C(C)(O)CC(C)C(=NOCC=CCN2CCN(CC=CCON=C3C(C)CC(C)(O)C(OC4OC(C)CC(N(C)C)C4O)C(C)C(OC4CC(C)(OC)C(O)C(C)O4)C(C)C(=O)OC(CC)C(C)(O)C(O)C3C)CC2)C(C)C(O)C1(C)O (stereo not shown) [Compound 760, 9(E)-4-piperazine-{N-4-(9(E)-oxime-erythromycin A-2(E)butenyl)}-2-butenyloxime-erythromycin A]	10	E (Growth of test organism was inhibited 35% or less.)	14	D (Growth of test organism was inhibited 35% or more and 55% or less.)	15	E (Growth of test organism was inhibited 35% or less.)	16	E (Growth of test organism was inhibited 35% or less.)										
CCC1OC(=O)C(C)C(OC2CC(C)(OC)C(O)C(C)O2)C(C)C(OC2OC(C)CC(N(C)C)C2O)C(C)(O)CC(C)C(=NOCC=CCN2CCNCC2)C(C)C(O)C1(C)O (stereo not shown) [Compound 762]			13	D (Growth of test organism was inhibited 35% or more and 55% or less.)	14	E (Growth of test organism was inhibited 35% or less.)	15	E (Growth of test organism was inhibited 35% or less.)										
CCC1OC(=O)C(C)C(OC2CC(C)(OC)C(O)C(C)O2)C(C)C(OC2OC(C)CC(N(C)C)C2O)C(C)(O)CC(C)C(=NOCC=CCNCCN)C(C)C(O)C1(C)O (stereo not shown) [Compound 763, 9(E)-4-(aminoethylamino)-2-butenyloxime-erythromycin A]			16	C (Growth of test organism was inhibited 55% or more and 75% or less.)	12	E (Growth of test organism was inhibited 35% or less.)	15	E (Growth of test organism was inhibited 35% or less.)	10	D (Growth of test organism was inhibited 35% or more and 55% or less.)								
CC[C@H]1OC(=O)[C@H](C)[C@@H](O[C@H]2C[C@@](C)(OC)[C@@H](O)[C@H](C)O2)[C@H](C)[C@@H](O[C@@H]2O[C@H](C)C[C@H](N(C)C/C=C/CO/N=C3\[C@H](C)C[C@@](C)(O)[C@H](O[C@@H]4O[C@H](C)C[C@H](N(C)C)[C@H]4O)[C@@H](C)[C@H](O[C@H]4C[C@@](C)(OC)[C@@H](O)[C@H](C)O4)[C@@H](C)C(=O)O[C@H](CC)[C@@](C)(O)[C@H](O)[C@H]3C)[C@H]2O)[C@](C)(O)C[C@@H](C)C(=O)[C@H](C)[C@@H](O)[C@]1(C)O [Compound 765, 3′-de-N-methyl-3′-N-{4-9(E)oxime-erythro-mycin A}-2(E)-butenyl-erythromycin A]			14	E (Growth of test organism was inhibited 35% or less.)	14	E (Growth of test organism was inhibited 35% or less.)	21	E (Growth of test organism was inhibited 35% or less.)			14	E (Growth of test organism was inhibited 35% or less.)						
C=CCCON=C1C(C)CC(C)(O)C(OC2OC(C)CC(N(C)C)C2O)C(C)C(OC2CC(C)(OC)C(O)C(C)O2)C(C)C(=O)OC(CC)C(C)(O)C(O)C1C (stereo not shown) [Compound 769, 9(E)-3-butenyloxime-erythromycin A]					11	E (Growth of test organism was inhibited 35% or less.)	16	E (Growth of test organism was inhibited 35% or less.)					14	E (Growth of test organism was inhibited 35% or less.)	10	E (Growth of test organism was inhibited 35% or less.)		
CCC1OC1(C)C1OC(=O)C(C)C(OC2CC(C)(OC)C(OS(=O)(=O)Cc3ccccc3)C(C)O2)C(C)C(OC2OC(C)CC(N(C)C)C2OC(C)=O)C2(C)CC(C)=C(O2)C1C (stereo not shown) [Compound 775, 2′-O-acetyl-4″-O-benzylsulfonyl-12,13-epoxide-8,9-anhydro-pseudoerythromycin A. 6,9-hemiketal]			10	E (Growth of test organism was inhibited 35% or less.)	16	E (Growth of test organism was inhibited 35% or less.)	16	E (Growth of test organism was inhibited 35% or less.)									16	D (Growth of test organism was inhibited 35% or more and 55% or less.)
